The results in this text go back to patent US7927601B2, “Variants of hepatitis B virus with resistance to anti-viral nucleoside agents and applications thereof” (Melbourne Health, priority 2004, dated 2011).

Marks after values point to notes of the source that are not given here.

Type in all cases: cell-based, HBV genotype A
In assay [1] the test system is A194T (AT) mutant HBV-DNA construct transfected into HepG2 cells. As to the kind of experiment: transient transfection cell culture assay, extracellular HBV-DNA by real-time PCR, rtA194T (AT) construct. The text has this: (§1) An extended (1.28×) HBV genome was cloned (HBV genotype A, subtype adw2) into a pBluescript KS (+) plasmid (Stratagene, La Jolla, Calif., USA), as described by Tacke et al, J Virol 78:8524-8535, 2004.
(§2) Three mutated HBV plasmids were constructed using a Quikchange (Registered) II site-directed mutagenesis kit (Stratagene, La Jolla, Calif., USA). Plasmids contained either mutations rtL180M and rtM204V (LM), rtL180M, rtM204V and rtA194T (LMAT), or rtA194T (AT). […]
(§3) HBV viral particles from the cell culture supernatant were precipitated using 26% polyethylene glycol (PEG 8000, Sigma, St. Louis, Mo., USA), followed by DNase 1 digestion (Takara, Shiga, Japan). […] A quantitative real-time PCR was used to quantify HBV-DNA. Briefly, a 189-bp fragment of the X region was amplified in a LightCycler system (Roche), using the QuantiTect Probe PCR kit (Qiagen) and the following probes and primers: 3FL-XHybprobe (5′-ACGGGGCGCACCTCTCTTTACGCGG fluorescein-3′ (SEQ ID NO:23)), 5LC-Xhybprobe (5′LCRed 640 nm-CTCCCCGTCTGTGCCTTCTCATCTGC PH-3′ (SEQ ID NO:24)), X sense (5′-GAC GTC CTT TGT YTA CGT CCC GTC-3′ (SEQ ID NO:25)), and X antisense (5′-TGCAGAGGTGAAGCGAAGTGCACA-3′ (SEQ ID NO:26)). […]
(§4) After adjusting for transfection efficiency, IC50 values were calculated from the HBV viral load using the following formula (Vandamme et al, Antiviral methods and protocols: 231, 2000): log IC50=log conc. […]

Assay [2] has as its system L180M + M204V (LM) mutant HBV-DNA construct transfected into HepG2 cells. As to the kind of experiment: transient transfection cell culture assay, extracellular HBV-DNA by real-time PCR, rtL180M+rtM204V (LM) construct.
Description: as §1, §2, §3, §4
(In qPCR the cycle at which signal appears reflects the starting amount.)

Assay [3] relates to L180M, A194T, M204V (LMAT) mutant HBV-DNA construct transfected into HepG2 cells. As to the kind of experiment: transient transfection cell culture assay, extracellular HBV-DNA by real-time PCR, rtL180M+rtA194T+rtM204V (LMAT) construct.
Description: as §1, §2, §3, §4

In assay [4] the test system is WT HBV-DNA construct transfected into HepG2 cells. As to the kind of experiment: transient transfection cell culture assay, extracellular HBV-DNA by real-time PCR, WT construct. On the procedure: as §1
HepG2 cells were grown in Eagles minimum essential medium (LGC Promochem, Middlesex, UK), supplemented with 10% v/v fetal bovine serum at 37° C. and 5% v/v CO2. For cDNA transfections, 3×10^5 cells were seeded to semi-confluence onto each well of a 6-well plate and allowed to adhere overnight. […]
as §3
Extracellular HBV-DNA was examined by real-time PCR, 5 days post-transfection and IC50 values were calculated.

In the case of `CC(C)OC(=O)OCOP(=O)(CO[C@H](C)Cn1cnc2c(N)ncnc21)OCOC(=O)OC(C)C.O=C(O)/C=C/C(=O)O` [tenofovir, Tenofovir disoproxil fumarate], the IC50 (as a rule, the concentration that inhibits the measured activity by half) in assay [1] (A194T (AT) construct, HepG2 cells, 5 days post-transfection) was 95 µM; in assay [2] (L180M + M204V (LM) construct, HepG2 cells, 5 days post-transfection), 71 µM; in assay [3] (M204V (LMAT) construct, HepG2 cells, value above the cell toxic level of tenofovir), > 120 µM; in assay [4] (WT HBV construct, 5 days post-transfection), 12.4 µM. For the same molecule, the “Fold IC50, extracellular DNA” value is 7.6^a in assay [1] (A194T (AT) versus WT, 5-10 fold = partial resistance); 5.7^a in assay [2] (L180M + M204V (LM) versus WT, 5-10 fold = partial resistance); >10*^b in assay [3] (M204V (LMAT) versus WT, >10-fold = resistance); 1^ in assay [4] (WT HBV construct (reference)).
